Experiments:
[1] = target: Cdk12 (Homo sapiens, UniProt Q9NYV4); details: have been shown (prior knowledge); cited from earlier work
[2] = test system: eIF4G-bound mRNAs in U2OS cells; test: RIP-seq of eIF4G-bound mRNAs; format: cell-based, human; details: transcriptional targets excluded
Procedure: All steps were conducted at 4° C. in RNase-free conditions. U20S cells (5×10^6) were transfected with the indicated siRNAs and washed twice with cold PBS. […] Reverse transcription and qRT-PCR for quantitative RNA analysis was carried out as described above.
All steps were conducted at 4° C. in RNase-free conditions. […] Reverse transcription and qRT-PCR for quantitative RNA analysis was carried out as described above.
High throughput sequencing was performed. For detail of analysis, sequenced reads were quality-tested using FASTQC and aligned to the hg19 human genome using the STAR aligner version 2.4.0 k (Dobin et al., Bioinformatics. 2013; 29(1):15-21. doi: 10.1093/bioinformatics/bts635. pmid:23104886). Mapping was carried out using default parameters (up to 10 mismatches per read, and up to 9 multi-mapping locations per read). […] Raw gene expression was quantified across all gene exons (RNA-Seq) or across gene bodies (RIP-Seq), using the top-expressed isoform as proxy for gene expression, and differential gene expression was carried out using the edgeR package version 3.6.8 (Robinson et al. (2010) Bioinformatics, 26, pp. 1) using duplicates to compute within-group dispersion. […]

[3] = test system: U2OS cells; details: CDK12 siRNA, 1 μM for 12 hr
Procedure: Top panel: U2OS cells were treated with tBHQ (tert-Butylhydroquinone) 100 μM for 4 h, and cell extracts were analyzed by co-immunoprecipitation with anti-CDK12 antisera for association of CRIF1 or CCNK.

[4] = test system: CHK1, RPL26, TMA7 gene promoters in U2OS cells; test: Chromatin immunoprecipitation (ChIP) at CDK12 target gene promoters; format: cell-based, human; details: 12 hr treatment
Procedure: Briefly, 5×10^6 cells were twice washed with ice-cold PBS and serially cross-linked with 2 mM DSG (Disuccinimidylglutarate) for 20 min and 1% (v/v) formaldehyde for 10 min at room temperature. The cross-linking reaction was stopped by adding glycine to a final concentration of 0.125 M for 10 min at room temperature. Cells were washed twice with cold PBS. […] ChIP DNA is analyzed by SYBR® Green master mixes (Life Technologies) using described primer sets. qPCR is carried out in the ABI7300 (Applied Biosystems) with a 10 min DNA denaturation step at 95° C., followed by 40 cycles of 15 s at 95° C., 60 s at 60° C. […]
ChIP experiments were carried out as described in the previous report. […] ChIP DNA is analyzed by SYBR® Green master mixes (Life Technologies) using described primer sets. qPCR is carried out in the ABI7300 (Applied Biosystems) with a 10 min DNA denaturation step at 95° C., followed by 40 cycles of 15 s at 95° C., 60 s at 60° C. […]

[5] = test system: CRIF1-CDK12 interaction in U2OS cells; test: Co-immunoprecipitation of CRIF1 with CDK12:CCNK under oxidative stress; format: cell-based, human; details: 100 μM for 4 h, reciprocal co-immunoprecipitation
Procedure: (§1) FIGS. 7A-7F. […] (F) Oxidative stress activates the CDK12 pathway.
(§2) CDK12 was also recently shown to be essential for NRF2-dependent transcription (Li et al., Sci Rep 6, 21455, 2016). To examine whether CDK12 activity is regulated globally by oxidative stress in human cells, U2OS cells were treated with tBHQ (tert-butylhydroquinone) to induce mitochondrial oxidative stress. […] In contrast, oxidative stress had no effect on the interaction of CCNK with CDK12.

[6] = test system: U2OS cells; test: Immunoblot of CDK12 substrate phosphorylation under oxidative stress; format: cell-based, human; details: 100 μM for 4 h
Procedure: as §1, §2

Cdk12, sequence (Q9NYV4 whole entry): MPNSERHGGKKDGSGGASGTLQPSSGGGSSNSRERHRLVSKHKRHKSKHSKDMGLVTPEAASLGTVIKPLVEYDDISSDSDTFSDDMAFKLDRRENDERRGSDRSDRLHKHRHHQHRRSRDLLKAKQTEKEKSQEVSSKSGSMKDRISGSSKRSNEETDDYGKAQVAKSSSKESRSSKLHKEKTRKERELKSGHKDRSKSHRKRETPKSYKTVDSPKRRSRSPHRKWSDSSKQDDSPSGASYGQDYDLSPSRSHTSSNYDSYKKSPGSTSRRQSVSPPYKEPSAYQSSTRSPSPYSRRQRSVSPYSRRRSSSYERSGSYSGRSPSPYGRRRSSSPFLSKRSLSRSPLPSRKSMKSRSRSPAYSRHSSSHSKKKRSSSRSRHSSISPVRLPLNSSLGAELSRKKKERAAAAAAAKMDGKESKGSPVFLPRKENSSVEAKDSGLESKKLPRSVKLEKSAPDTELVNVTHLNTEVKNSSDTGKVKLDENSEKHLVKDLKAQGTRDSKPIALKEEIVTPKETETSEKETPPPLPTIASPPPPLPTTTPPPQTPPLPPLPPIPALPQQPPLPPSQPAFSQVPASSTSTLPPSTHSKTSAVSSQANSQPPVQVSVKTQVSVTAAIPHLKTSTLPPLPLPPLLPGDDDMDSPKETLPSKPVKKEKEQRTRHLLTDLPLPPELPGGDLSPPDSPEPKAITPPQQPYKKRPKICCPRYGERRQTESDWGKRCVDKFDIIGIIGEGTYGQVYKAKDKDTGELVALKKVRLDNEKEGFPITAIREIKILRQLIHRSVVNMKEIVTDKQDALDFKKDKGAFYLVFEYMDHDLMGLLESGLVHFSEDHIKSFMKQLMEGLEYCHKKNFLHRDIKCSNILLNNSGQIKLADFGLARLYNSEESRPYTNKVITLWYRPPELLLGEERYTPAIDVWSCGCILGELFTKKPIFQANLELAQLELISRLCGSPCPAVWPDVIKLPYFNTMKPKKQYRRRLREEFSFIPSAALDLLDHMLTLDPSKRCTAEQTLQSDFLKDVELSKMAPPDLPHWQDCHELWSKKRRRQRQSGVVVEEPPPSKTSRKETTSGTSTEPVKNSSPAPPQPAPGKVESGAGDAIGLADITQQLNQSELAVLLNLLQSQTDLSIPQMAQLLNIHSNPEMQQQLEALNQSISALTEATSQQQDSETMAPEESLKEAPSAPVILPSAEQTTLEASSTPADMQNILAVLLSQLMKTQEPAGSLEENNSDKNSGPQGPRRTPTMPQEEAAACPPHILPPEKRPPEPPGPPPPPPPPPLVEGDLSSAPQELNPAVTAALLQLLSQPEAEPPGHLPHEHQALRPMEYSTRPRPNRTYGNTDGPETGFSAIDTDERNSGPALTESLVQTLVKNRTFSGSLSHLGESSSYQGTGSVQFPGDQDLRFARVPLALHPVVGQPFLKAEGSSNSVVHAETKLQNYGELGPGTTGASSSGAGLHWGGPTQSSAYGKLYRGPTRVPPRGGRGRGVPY
Cdk12, sequence (O75909 whole entry partner): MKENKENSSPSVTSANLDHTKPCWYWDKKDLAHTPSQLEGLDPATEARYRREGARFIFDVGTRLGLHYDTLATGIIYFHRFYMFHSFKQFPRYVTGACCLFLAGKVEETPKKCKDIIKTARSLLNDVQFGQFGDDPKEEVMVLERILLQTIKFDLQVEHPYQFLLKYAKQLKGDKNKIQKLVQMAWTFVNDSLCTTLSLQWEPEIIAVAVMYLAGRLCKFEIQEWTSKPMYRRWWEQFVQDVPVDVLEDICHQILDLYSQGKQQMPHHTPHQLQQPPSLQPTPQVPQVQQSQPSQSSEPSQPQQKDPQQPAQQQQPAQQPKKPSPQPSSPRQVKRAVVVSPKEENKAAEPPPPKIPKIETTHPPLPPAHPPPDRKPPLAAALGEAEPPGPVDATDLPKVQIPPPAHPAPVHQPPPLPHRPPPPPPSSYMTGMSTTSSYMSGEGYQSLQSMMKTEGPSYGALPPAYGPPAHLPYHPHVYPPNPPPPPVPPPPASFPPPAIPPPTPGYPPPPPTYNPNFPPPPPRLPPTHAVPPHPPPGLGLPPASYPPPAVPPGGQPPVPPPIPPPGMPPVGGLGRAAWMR

CN1CC[C@H](c2c(O)cc(O)c3c(=O)cc(-c4ccccc4Cl)oc23)[C@H](O)C1 [flavopiridol]
inhibition of Cdk12 kinase activity [1]: modestly inhibit

CN(C)C/C=C/C(=O)Nc1ccc(C(=O)Nc2cccc(Nc3ncc(Cl)c(-c4c[nH]c5ccccc45)n3)c2)cc1 [THZ1]
inhibition of Cdk12 kinase activity [1]: modestly inhibit

CO[C@H]1C[C@@H]2CC[C@@H](C)[C@@](O)(O2)C(=O)C(=O)N2CCCC[C@H]2C(=O)O[C@H]([C@H](C)C[C@@H]2CC[C@@H](O)[C@H](OC)C2)CC(=O)[C@H](C)/C=C(\C)[C@@H](O)[C@@H](OC)C(=O)[C@H](C)C[C@H](C)/C=C/C=C/C=C/1C [rapamycin]
number of rapamycin-sensitive mRNAs that require mTORC1 to efficiently bind eIF4G [2]: 2,961

O=C(c1cc(Cc2n[nH]c(=O)c3ccccc23)ccc1F)N1CCN(C(=O)C2CC2)CC1 [Olaparib, olaparib]
cell survival with CDK12 depletion [3]: sensitizes

CC[C@H](C)[C@@H]1NC(=O)CNC(=O)[C@@H]2Cc3c([nH]c4cc(O)ccc34)[S+]([O-])C[C@@H](NC(=O)CNC1=O)C(=O)N[C@@H](CC(N)=O)C(=O)N1C[C@H](O)C[C@H]1C(=O)N[C@@H]([C@@H](C)[C@@H](O)CO)C(=O)N2 (stereo in doubt) [α-amanitin]
association of eIF4E and 4E-BP1 at the CHK1 promoter [4]: largely abolished | occupancy of RNAPII or CDK12 at the CHK1 promoter [4]: without affecting

CC(C)(C)c1cc(O)ccc1O [tBHQ, tert-butylhydroquinone]
association of CRIF1 with the CDK12:CCNK complex [5]: greatly reduced | RNAPII CTD-Ser2 and 4E-BP1 S65, T70 phosphorylation [6]: global increase | mTORC1-dependent 4E-BP1 T37/46 phosphorylation levels [6]: only modestly increased

From patent US20170157212A1, “CDK MODULATORS AND METHODS FOR THE TREATMENT OF CANCER” (Salk Institute for Biological Studies, priority 2015, published 2017)
